The values that follow come from US9632092B2, “Reagent for diagnosing tumor, pharmaceutical composition, and screening method” (Tokyo Metropolitan Institute of Medical Science, priority 2012, dated 2017).

Where no end group is shown, it is not given here. [ ]: non-standard residue; d: D form. pS = N[C@@H](COP(=O)(O)O)C(=O)O

One experiment concerns Nrf2. Description: immunoblotting of nuclear and whole cell extracts of hepatocytes expressing p62 mutants. Format: cell-based, mouse. Particulars: normal hepatocytes. As to the method: Adenoviruses capable of expressing FLAG-tagged p62 w.t. […] Next, normal hepatocytes were cultured in 2 ml of growth medium (Williams E medium containing 10% fetal bovine serum, 5 U/mL penicillin, and 50 μg/mL streptomycin) for 24 hours. The medium was replaced with fresh medium containing the adenovirus at MOI of 50 and the culture was continued. Twenty-four hours after the replacement of the medium, whole cell extract (Total) and nuclear extract (Nucleus) were prepared. Next, immunoprecipitates were prepared from the whole cell extract with anti-FLAG antibody (Sigma Chemical). Then, the samples were separated by NuPAGE electrophoresis system (Invitrogen) on 12% bis-tris gel and MOPS-SDS buffer, and transferred to PVDF membranes. The signals were detected using anti-p62 antibody (GP62C: Progen Biotechnik), anti-Keap1 antibody (Proteintech Group), anti-phosphorylated p62 antibody, anti-Nqo1 antibody (Abcam), anti-Actin antibody (MAB1501R: Millipore), anti-Nrf2 antibody (H-300: Santa Cruz Biotechnology), and anti-LaminB antibody (M-20: Santa Cruz Biotechnology).
Background: Immunoblotting shows a protein as a band on a membrane.

Experiment [1] has as its target mouse Keap1-DC (aa321-609, SEQ ID No. 24) (Mus musculus, UniProt Q9Z2X8). The experiment in a line: isothermal titration calorimetry, binding to Keap1-DC. Particulars: for Binding constant (Ka) to Keap1-DC: isothermal titration calorimetry, 25° C.; for binding affinity for Keap1-DC relative to KIR of the non-phosphorylated p62: fold higher binding constant. In general terms: Isothermal titration calorimetry measures the heat released or taken up as one component is titrated into another.
Method: Binding isotherms were obtained using isothermal titration calorimetry, for the interaction of mouse Keap1-DC (aa321-609, SEQ ID No. 24) with KIR in mouse non-phosphorylated p62 (SEQ ID No. 21), KIR in mouse phosphorylated p62 (SEQ ID No. 21), or an ETGE motif of mouse Nrf2 (SEQ ID No. 26) (FIG. 2).
First, isothermal titration calorimetry was performed using MicroCal iTC200 System (GE Healthcare) at 25° C. 2.5 μl of 0.1 mM solution of non-phosphorylated KIR (^348[sequence]^356, SEQ ID No. 21) was injected from a rotating syringe (1000 rpm) into 200 μl of 0.1 mM solution of Keap1-DC sixteen times at an interval of 3 minutes. 1.3 μl of 0.6 mM phosphorylated KIR (^348VDP(pS)TGELQ^356) solution was injected from a rotating syringe (1000 rpm) into 200 μl of 0.06 mM Keap1-DC solution thirty times at an interval of 2 minutes. […] The binding data were analyzed using Origin 7 software (GE healthcare).

A further experiment has as its system Huh-1_p62^−/− cells. Description: subdermal transplantation of Huh-1_p62−/− cells with introduced p62 mutants into nude mice. The format is in vivo. Particulars: 50 days after transplantation, introduced into Huh-1_p62−/−. As to the method:
First, p62 cDNAs which encode S349E (SEQ ID No. 8) (pseudo-phosphorylated p62) with the substitution of glutamic acid for serine 349 of human p62 (SEQ ID No. 7), S349A (SEQ ID No. 9) (non-phosphorylated p62) with the substitution of alanine for serine 349 of human p62, or T350A (SEQ ID No. 10) (p62 mutant defective in interacting with Keap1) with the substitution of alanine for threonine 350 of human p62 was prepared.
Next, a [Huh-1_p62^−/−] cell line was generated by knocking out the p62 gene in Huh-1 cells, using Zinc Finger Nuclease system (Sigma-Aldrich, CompoZr (registered trademark) Zinc Finger Nuclease). Then, adenoviruses having p62 w.t. or p62 mutant were produced, using Adenovirus expression kit (Takara Bio). The [Huh-1_p62^−/−] cells were cultured in 2 ml of a growth medium (Williams E medium containing 10% fetal bovine serum, 5 U/ml penicillin, and 50 μg/ml streptomycin) for 24 hours. The medium was replaced with a fresh medium containing adenovirus at MOI of 50 and the cells were continuously cultured. Wild-type human p62 (SEQ ID No. 7), S349E (SEQ ID No. 8), S349A (SEQ ID No. 9), and T350A (SEQ ID No. 10) were introduced into the [Huh-1_p62^−/−] cell line and thus a [Huh-1_p62^−/−_p62 w.t.] cell line with p62 w.t., a [Huh-1_p62^−/−_p62S349E] cell line with p62S349E, a [Huh-1_p62^−/−_p62S349A] cell line with p62S349A, and a [Huh-1_p62^−/−_p62T350A] cell line with p62T350A, respectively, in [Huh-1_p62^−/−] cell line was obtained.
Each of the cells was transplanted subdermally into […] nude mice. […] Each cell line was transplanted into five mice and the volume (left) and the weight (right) of the tumors were measured 50 days after the transplantation. Mean±standard error for each cell line was calculated and shown in the graphs in FIG. 7(b).

Sequence of mouse Keap1-DC (aa321-609, SEQ ID No. 24) (Q9Z2X8 321-609): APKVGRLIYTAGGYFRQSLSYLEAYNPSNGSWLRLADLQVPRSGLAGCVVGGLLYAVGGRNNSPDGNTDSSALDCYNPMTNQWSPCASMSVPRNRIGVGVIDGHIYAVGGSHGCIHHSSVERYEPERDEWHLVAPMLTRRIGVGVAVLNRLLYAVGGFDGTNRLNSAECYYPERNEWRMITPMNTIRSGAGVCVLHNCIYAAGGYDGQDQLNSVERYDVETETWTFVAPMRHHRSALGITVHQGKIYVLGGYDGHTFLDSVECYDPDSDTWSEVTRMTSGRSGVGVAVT

Consider “S351E: pseudo-phosphorylated mouse p62 mutant, glutamic acid for serine 351, SEQ ID No. 2”, for which the “Nrf2 accumulation in nuclei” value in the experiment on Nrf2 (nuclear extract) is “significantly accumulated”. Further, the “expression of Nqo1 (Nrf2 target)” value in the experiment on Nrf2 (whole cell extract) is recorded as “induced”. Turning to “non-phosphorylated p62-KIR: non-phosphorylated Keap1-interacting region peptide of mouse p62, 348VDPSTGELQ356, SEQ ID No. 21 (listed as Mus musculus) [reference compound]”, the “Binding constant (Ka) to Keap1-DC” value in experiment [1] is “(5.67±1.19)×10^4 M^−1”.

As for “phosphorylated p62-KIR: Keap1-interacting region peptide of mouse p62 phosphorylated at serine 351, 348VDP(pS)TGELQ356 (VDP[pS]TGELQ; listed as Mus musculus)”, in experiment [1], the “binding affinity for Keap1-DC relative to KIR of the non-phosphorylated p62” value is given as “about 100 times” and the “Binding constant (Ka) to Keap1-DC” value is reported as “(5.12±1.80)×10^6 M^−1”. Further, the “binding affinity for Keap1-DC relative to KIR of the non-phosphorylated p62” value in experiment [1] (listed as KIR in the phosphorylated p62) is “approximately 100 times”. With “T350A: human p62 mutant defective in interacting with Keap1, alanine for threonine 350, SEQ ID No. 10 [reference compound]”, the “in vivo proliferation of the tumor cells (tumor volume and weight)” value (shortened to “in vivo proliferation of the tumor cells”) with Huh-1_p62^−/− cells is reported as “not recovered”. Turning to “p62 (S349E): pseudo-phosphorylated human p62 mutant, glutamic acid for serine 349, SEQ ID No. 8”, the “in vivo proliferation of the tumor cells” value with Huh-1_p62^−/− cells is given as “significantly enhanced”. With “S349A: non-phosphorylated human p62 mutant, alanine for serine 349, SEQ ID No. 9”, in the experiment on Huh-1_p62^−/− cells, the “in vivo proliferation of the tumor cells” value was “not recovered”.
